Our source for the Ki values is patent US6465433B1, “Boronic ester and acid compounds, synthesis and uses” (Millennium Pharmaceuticals, Inc., priority 1994, dated 2002).

One may read the Ki as a dissociation constant, usually derived from enzyme kinetics or from competition with a known ligand. Low readings indicate a stronger hold on the target, high ones a looser hold on the target.

The target of the first test is SDS-activated 20S proteasome from rabbit muscle (Oryctolagus cuniculus, UniProt G1SU71+G1T4Q9). The test can be described thus: Kinetic assay: inhibition of the 20S proteasome. To be noted: Table II; SDS-activated 20S proteasome from rabbit muscle, substrate Suc-LLVY-AMC. The test is classed as biochemical. As to the method:
P, AA^1, AA^2, AA^3, and Z^1 and Z^2 represent the structures present on formula (1) or (2). The protocol for the kinetic assay described in Tables II-V is as described in Rock et al., Cell 78:761-771 (1994). In these tables, Ki values are reported, which are dissociation constants for the equilibrium that is established when enzyme and inhibitor interact to form the enzyme:inhibitor complex. The reactions were performed using SDS-activated 20S proteasome from rabbit muscle. The substrate used was Suc-LLVY-AMC.
Regarding `CC(C)CC(NC(=O)C(CC(C)C)NC(=O)C(CC(C)C)NC(=O)OCc1ccccc1)B1OC2CC3CC(C3(C)C)C2(C)O1` (stereo not drawn) [MG-261], the affinity, expressed as Ki, was 0.032 nM.
The same measure, in the same setting: to `CC(C)CC(NC(=O)C(CC(C)C)NC(=O)OCc1ccccc1)B1OC2CC3CC(C3(C)C)C2(C)O1` (stereo not drawn) [MG-264] belongs 119 nM; to `CO[C@](C(=O)N[C@@H](CC(C)C)B(O)O)(c1ccccc1)C(F)(F)F` [MG-284], 1200 nM; to `CC(C)C[C@H](NC(=O)[C@H](Cc1cccc2ccccc12)NS(C)(=O)=O)B1OCCNCCO1` [MG-291], 0.28 nM.
Consider `CC(C)CC(NC(=O)C(Cc1cccc2ccccc12)NC(=O)N1CCOCC1)B(O)O` (stereo not drawn) [MG-293], for which the Ki came to 2300 nM.
`CC(C)C[C@H](NC(=O)[C@@H](N)Cc1cccnc1)B(O)O` [MG-294] registered an inhibition constant Ki of 152 nM.
`CC(C)C[C@H](NC(=O)[C@H](Cc1c[nH]c2ccccc12)NS(C)(=O)=O)B(O)O` [MG-295]: the inhibition constant Ki came out at 5.8 nM.
`CC(C)C[C@H](NC(=O)[C@H](Cc1cccnc1)NC(=O)N1CCOCC1)B(O)O` [MG-300] registered a Ki of 1.3 nM.
Turning to `CC(=O)N1Cc2ccccc2CC1C(=O)N[C@@H](CC(C)C)B(O)O` (stereo partly drawn) [MG-310, N-Acetyl-1,2,3,4-tetrahydro-3-isoquinolinecarbonyl-L-leucine Boronic Acid], the affinity corresponds to a Ki of 90 nM.
Same read-out and setting: to `CB(O)[C@H](CC(C)C)NC(=O)[C@H](Cc1cccc2ccccc12)NC(=O)N1CCOCC1` [MG-317, N-(4-Morplioline)carbonyl-β-(1-naphtlyl)-L-alanine-L-leucine Methylboronic Acid] belongs 99 nM.
With `CB(C)[C@H](CC(C)C)NC(=O)[C@H](Cc1cccc2ccccc12)NC(=O)N1CCOCC1` [MG-318, N-(4-Morpholine)carbonyl-β-(1-naphthyl)-L-alanine-L-leucine Dimethylborane], the Ki was 640 nM.
For the compound `CC(=O)N[C@@H](CC(C)C)B(O)O` [MG-323], the Ki was 850 nM.
Still for that read-out and setting: to `CC(C)C[C@H](NC(=O)[C@@H](CC(=O)N1CCOCC1)Cc1cccc2ccccc12)B(O)O` [MG-324, N-[3-(4-Morpholine)carbonyl-2(R)-(1-naphthyl)methyl]propionyl-L-leucine Boronic Acid] belongs 2 nM.
Take `CC(C)CC(NC(=O)C1NCCc2ccccc21)B(O)O` (stereo not drawn) [MG-337]: the inhibition constant Ki is 230 nM.
`CC(C)C[C@H](NC(=O)[C@H](Cc1ccccn1)NC(=O)c1ccc2ccccc2n1)B(O)O` [MG-338] displayed a Ki of 1.4 nM.
Consider `CC(C)CC(NC(=O)C1CCCNC1)B(O)O` (stereo not drawn) [MG-339], for which the affinity corresponds to a Ki of 1600 nM.
As to `CC(C)C[C@H](CC(=O)NCc1ccccc1)B(O)O` [MG-342, N-Benzyl-(3R)-3-dioxyboryl-5-methylhexanamide], the inhibitory constant (Ki) turned out to be 9700 nM.
The compound `CC(=O)N1Cc2[nH]c3ccccc3c2C[C@H]1C(=O)N[C@@H](CC(C)C)B(O)O` [MG-344] gave an inhibitory constant (Ki) of 51 nM.
`CC(C)C[C@H](NC(=O)[C@@H]1C[C@@H](O)CN1)B(O)O` [MG-348]: affinity was put at a Ki of 21 nM.
Regarding `CC(C)C[C@H](NC(=O)[C@H](Cc1ccccc1)NC(=O)c1ccccc1)B(O)O` [MG-353], the inhibitory constant (Ki) turned out to be 0.15 nM.
`CC(C)C[C@H](NC(=O)C[C@H](O)[C@H](Cc1cccc2ccccc12)NS(=O)(=O)c1cccc2cccnc12)B(O)O` [MG-354] returned a Ki of 28 nM.
`CC(C)C[C@H](NC(=O)[C@H](Cc1ccccc1)NC(=O)OCc1ccccc1)B(O)O` [MG-356] displayed an inhibitory constant (Ki) of 0.13 nM.
On to `CC(C)CC(NC(=O)C1CCCCN1)B(O)O` (stereo not drawn) [MG-357], for which the Ki turned out to be 23 nM.
`CC(C)C[C@H](NC(=O)[C@H](Cc1ccccc1)NC(=O)c1ccoc1)B(O)O` [MG-358]: the Ki stood at 0.17 nM.
Consider `CC(C)C[C@H](NC(=O)[C@H](Cc1ccccc1)NC(=O)c1cc[nH]c1)B(O)O` [MG-361], for which the affinity corresponds to a Ki of 0.14 nM.
The compound `CC(C)C[C@H](NC(=O)NCc1ccccc1)B(O)O` [MG-362] registered a Ki of 6400 nM.

Still in this test, the particulars now being: Table III; dipeptide boronic acid vs dipeptide aldehyde.
In turn, `CC(C)C[C@@H](C=O)NC(=O)[C@H](CC(C)C)NC(=O)OCc1ccccc1` [MG-105, reference compound] had a Ki of 15000 nM.
